Data taken from patent US10220048B2, “Compositions and methods for treating ocular diseases” (Aerpio Therapeutics, Inc., priority 2013, dated 2019).
Where “and” joins values, the source holds several entries; their conditions need not be identical. Equal values may be shown once. Entries after “also recorded” stand apart in the source; their conditions may differ.

Legend:
[1] = tested on: patients with diabetic macular edema; assay: Best corrected visual acuity (letters) in diabetic macular edema patients given the disclosed compound subcutaneously plus intravitreal anti-VEGF agent; format: in vivo, human; conditions: 5 mg s.c. twice daily 28 days, then ranibizumab or aflibercept intravitreal; 14-28 days post anti-VEGF (FIG. 4)
Description: The disclosed Figures represent a control or baseline study used as a benchmark for determining the effectiveness of the disclosed methods for treating ocular diseases (FIGS. 1 and 3) and studies directed to the disclosed methods. Described herein below, four patients with visual acuity loss due to diabetic macular edema (central retinal thickness [CRT] of more than 325 microns and best corrected visual acuity less than 70 letters) were treated with subcutaneous injections of 5 mg of the disclosed compound twice a day for 28 days and then observed for an additional two months (days 28 through 84). At any time during the course of the study, investigators could administer additional therapy consisting of intravitreal injection of an anti-VEGF agent, for example, ranibizumab, bevacizumab and/or aflibercept if considered by the investigator to be medically necessary. Retinal thickness as measured by ocular coherence tomography and best corrected visual acuity as measured by a standard vision test were assessed at regular intervals during the 28 day active treatment phase and through the 2 month post-treatment observation phase, (Screening, Day 1 [baseline], Day 7, Day 14, Day 21, Day 28, Day 42, Day 56 and Day 84). The main efficacy outcomes for the study were change in CRT and visual acuity over time with treatment. […]

[2] = tested on: patients with diabetic macular edema; assay: Central Foveal Thickness by ocular coherence tomography in diabetic macular edema patients given the disclosed compound subcutaneously plus intravitreal anti-VEGF agent; format: in vivo, human
Description: The disclosed Figures represent a control or baseline study used as a benchmark for determining the effectiveness of the disclosed methods for treating ocular diseases (FIGS. 1 and 3) and studies directed to the disclosed methods. Described herein below, four patients with visual acuity loss due to diabetic macular edema (central retinal thickness [CRT] of more than 325 microns and best corrected visual acuity less than 70 letters) were treated with subcutaneous injections of 5 mg of the disclosed compound twice a day for 28 days and then observed for an additional two months (days 28 through 84). At any time during the course of the study, investigators could administer additional therapy consisting of intravitreal injection of an anti-VEGF agent, for example, ranibizumab, bevacizumab and/or aflibercept if considered by the investigator to be medically necessary. Retinal thickness as measured by ocular coherence tomography and best corrected visual acuity as measured by a standard vision test were assessed at regular intervals during the 28 day active treatment phase and through the 2 month post-treatment observation phase, (Screening, Day 1 [baseline], Day 7, Day 14, Day 21, Day 28, Day 42, Day 56 and Day 84). The main efficacy outcomes for the study were change in CRT and visual acuity over time with treatment. FIG. 2 depicts the results of a study wherein 4 patients received 5 mg of the disclosed compound subcutaneously twice daily for 28 days and subsequently were treated in one or both eyes (7 eyes total) with either ranibizumab (0.3 or 0.5 mg) or aflibercept (2 mg) by intravitreal injection at the discretion of the study investigator. […] The mean change in Central Foveal Thickness was −289 μm, approximately double the reduction seen 7 days to one month after ranibizumab injection in the benchmark study as depicted in FIG. 1. FIG. 5 represents the results of a single patient. The eye having the greater Central Foveal Thickness is chosen as the Study Eye. The patient from day one was given 5 mg of the disclosed compound subcutaneously twice daily. At week 3 (21 days, indicated by arrow) the fellow eye is treated with 0.5 mg of ranibizumab. At week 6 (42 days, indicated by arrow) the treated eye is treated with 0.5 mg of ranibizumab. […] Without wishing to be limited by theory, it is believed that when the fellow eye is treated with an injection of 0.5 mg of ranibizumab, the ranibizumab enters the study eye systemically. […] At week 6, the study eye is treated with an intravitreal injection of 0.5 mg of ranibizumab. As depicted in FIG. 5, by week 8, there is an overall reduction in CFT of approximately 690 μm, wherein the CFT of the subject eye is approximately 180 μm. Although the Fellow Eye began with less CFT than the study eye, nevertheless, treatment with ranibizumab at week 3 (day 21) produced a change in CFT of approximately 430 μm. […] FIG. 6 represents the results of a single patient. The eye having the greater Central Foveal Thickness is chosen as the Treated Eye (Study Eye). The patient from day one was given 5 mg of the disclosed compound subcutaneously twice daily. At week 3 (21 days, indicated by arrow) the fellow eye is rescued with 2 mg of aflibercept. […] At week 6 (42 days, indicated by arrow) the treated eye is rescued with 2 mg of aflibercept. […] The disclosed Figures represent a control or baseline study used as a benchmark for determining the effectiveness of the disclosed methods for treating ocular diseases (FIGS. 1 and 3) and studies directed to the disclosed methods. Described herein below, four patients with visual acuity loss due to diabetic macular edema (central retinal thickness [CRT] of more than 325 microns and best corrected visual acuity less than 70 letters) were treated with subcutaneous injections of 5 mg of the disclosed compound twice a day for 28 days and then observed for an additional two months (days 28 through 84). […]

[3] = biological target: HPTP-β (Homo sapiens (Human), UniProt P23467); assay: HPTP-β inhibition (IC50); format: biochemical; conditions: read-out: HPTPβ IC50
Chain of HPTP-β (P23467 23-1997): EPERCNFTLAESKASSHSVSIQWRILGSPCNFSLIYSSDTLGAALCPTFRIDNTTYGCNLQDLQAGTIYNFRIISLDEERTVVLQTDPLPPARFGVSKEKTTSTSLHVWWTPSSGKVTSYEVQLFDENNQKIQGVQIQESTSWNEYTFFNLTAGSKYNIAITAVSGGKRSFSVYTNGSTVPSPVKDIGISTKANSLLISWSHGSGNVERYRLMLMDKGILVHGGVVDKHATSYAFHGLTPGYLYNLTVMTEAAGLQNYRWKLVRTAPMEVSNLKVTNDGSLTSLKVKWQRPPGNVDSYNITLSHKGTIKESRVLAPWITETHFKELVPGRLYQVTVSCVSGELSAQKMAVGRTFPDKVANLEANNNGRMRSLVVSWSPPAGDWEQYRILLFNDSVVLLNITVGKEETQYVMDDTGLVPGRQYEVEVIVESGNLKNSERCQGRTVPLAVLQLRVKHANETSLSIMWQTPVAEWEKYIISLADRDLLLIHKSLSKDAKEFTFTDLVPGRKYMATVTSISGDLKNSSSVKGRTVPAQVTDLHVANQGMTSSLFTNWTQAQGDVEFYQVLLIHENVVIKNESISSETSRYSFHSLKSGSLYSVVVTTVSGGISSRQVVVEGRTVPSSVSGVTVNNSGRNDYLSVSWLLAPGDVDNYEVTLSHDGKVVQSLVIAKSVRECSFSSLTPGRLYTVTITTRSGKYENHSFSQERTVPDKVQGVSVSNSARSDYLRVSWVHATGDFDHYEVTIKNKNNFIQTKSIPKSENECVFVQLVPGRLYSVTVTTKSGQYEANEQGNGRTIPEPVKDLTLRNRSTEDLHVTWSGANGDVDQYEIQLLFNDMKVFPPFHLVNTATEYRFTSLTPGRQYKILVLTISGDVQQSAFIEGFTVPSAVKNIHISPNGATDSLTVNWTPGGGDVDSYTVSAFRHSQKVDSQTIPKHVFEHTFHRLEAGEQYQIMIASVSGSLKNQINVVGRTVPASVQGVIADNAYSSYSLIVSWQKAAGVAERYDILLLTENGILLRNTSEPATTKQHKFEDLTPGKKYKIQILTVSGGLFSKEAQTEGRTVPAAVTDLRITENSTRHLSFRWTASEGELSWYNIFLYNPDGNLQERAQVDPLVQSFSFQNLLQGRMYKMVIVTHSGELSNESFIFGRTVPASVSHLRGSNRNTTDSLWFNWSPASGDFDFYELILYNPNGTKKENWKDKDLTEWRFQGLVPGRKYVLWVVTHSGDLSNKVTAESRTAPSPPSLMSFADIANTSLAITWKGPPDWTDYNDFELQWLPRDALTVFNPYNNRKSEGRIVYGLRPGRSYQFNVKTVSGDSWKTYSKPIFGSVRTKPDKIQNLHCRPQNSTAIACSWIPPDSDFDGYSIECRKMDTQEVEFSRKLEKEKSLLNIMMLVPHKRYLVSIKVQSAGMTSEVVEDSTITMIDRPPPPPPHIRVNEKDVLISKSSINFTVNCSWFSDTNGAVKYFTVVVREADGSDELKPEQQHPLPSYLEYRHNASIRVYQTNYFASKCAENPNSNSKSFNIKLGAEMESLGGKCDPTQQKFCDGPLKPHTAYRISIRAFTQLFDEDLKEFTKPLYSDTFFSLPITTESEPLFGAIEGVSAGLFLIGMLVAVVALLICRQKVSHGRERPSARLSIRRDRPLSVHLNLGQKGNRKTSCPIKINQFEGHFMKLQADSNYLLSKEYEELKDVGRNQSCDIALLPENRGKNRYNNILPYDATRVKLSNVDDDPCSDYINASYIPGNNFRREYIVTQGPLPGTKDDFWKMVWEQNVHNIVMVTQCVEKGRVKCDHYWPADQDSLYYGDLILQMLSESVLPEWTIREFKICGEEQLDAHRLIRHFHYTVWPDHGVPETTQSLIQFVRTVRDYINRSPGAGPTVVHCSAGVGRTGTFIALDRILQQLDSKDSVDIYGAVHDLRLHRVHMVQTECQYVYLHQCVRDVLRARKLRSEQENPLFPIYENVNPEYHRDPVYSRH

[4] = single patient (FIG. 5), 5 mg s.c. twice daily, study eye given 0.5 mg ranibizumab at week 6
[5] = single patient, aflibercept protocol (FIG. 6)

IC50 [3] [pM]	SMILES	mean change in Visual Acuity [1] [letters]	Central Foveal Reduction, individual patient eye ([2]; 5 mg s.c. twice daily 28 days, then ranibizumab (0.3 or 0.5 mg) or aflibercept (2 mg) intravitreal, 14-28 days post anti-VEGF, 7 eyes (FIG. 2))	mean change in Central Foveal Thickness ([2]; 5 mg s.c. twice daily 28 days, then ranibizumab or aflibercept intravitreal, 14-28 days post anti-VEGF, 7 eyes (FIG. 2)) [μm]	CFT reduction relative to reduction after ranibizumab in benchmark study ([2]; combination versus FIG. 1 benchmark)	CFT of study eye at week 6 ([2]; single patient (FIG. 5), 5 mg s.c. twice daily, before ranibizumab to study eye)	change in CFT, fellow eye, after ranibizumab at week 3 ([2]; single patient (FIG. 5), 5 mg s.c. twice daily, fellow eye given 0.5 mg ranibizumab at day 21, by week 4)	reduction in CFT, study eye, day 21 to day 28 ([2]; single patient (FIG. 5), 5 mg s.c. twice daily, fellow eye given 0.5 mg ranibizumab at week 3)	CFT of study eye at week 8 [2, 4]	overall reduction in CFT, study eye, by week 8 [2, 4]	CFT reduction, fellow eye, after rescue ([2]; single patient (FIG. 6), 5 mg s.c. twice daily, fellow eye rescued with 2 mg aflibercept)	CFT reduction, study eye, after rescue ([2]; single patient (FIG. 6), 5 mg s.c. twice daily, study eye rescued with 2 mg aflibercept at week 6)	reduction of CFT from onset of the study, non-treated eye [2, 5] [μm]	reduction of CFT from onset of the study, study eye [2, 5]
–	COC(=O)N[C@@H](Cc1ccccc1)C(=O)N[C@@H](Cc1ccc(NS(=O)(=O)O)cc1)c1csc(-c2cccs2)n1 [the disclosed compound, 4-{(S)-2-[(S)-2-(methoxycarbonylamino)-3-phenylpropanamido]-2-[2-(thiophen-2-yl)thiazol-4-yl]ethyl}phenylsulfamic acid]	9	50-100 μm and 150-200 μm and 200-250 μm and 300-350 μm and 350-400 μm and 450-500 μm	−289	approximately double	approximately 775 μm	approximately 430 μm and 350 μm	approximately 300 μm; also recorded: approximately 250 μm	approximately 180 μm; also recorded: approximately 225 μm	approximately 690 μm; also recorded: approximately 500 μm	approximately 400 μm	approximately 310 μm; also recorded: approximately 300 μm	~280	approximately 300 μm
< 2	COC(=O)N[C@@H](Cc1ccccc1)C(=O)N[C@@H](Cc1ccc(NS(=O)(=O)O)cc1)c1nc(-c2ccccc2)cs1 [AA21, 4-{(S)-2-[(S)-2-(Methoxycarbonylamino)-3-phenylpropanamido]-2-(4-phenylthiazol-2-yl)ethyl}phenylsulfamic acid]	–	–	–	–	–	–	–	–	–	–	–	–	–
